Data reported in patent publication US10316057B2, “Tandem facial amphiphiles” (WISCONSIN ALUMNI RESEARCH FOUNDATION, priority 2011, dated 2019).
“And” between values parts separate entries of the source, which are not always exact repeats. Equal entries are not always repeated. Structures can show the parent of a compound that is named as a salt.

Key:
[1] = Critical micelle concentration by solubilization of a hydrophobic fluorescent dye; assay type: physicochemical; conditions: mean ± SD, n = 3
Text: The “Critical Micelle Concentration” (CMC) refers to the concentration of a detergent (e.g., an amphiphile as described herein) in an aqueous solution at which the detergent molecules self-assemble into micelles. Below the CMC, detergents are mostly monomeric; above the CMC, micelle concentration increases linearly with detergent concentration. The CMC is dependent upon many factors and is detergent-specific. The CMC of a detergent can be determined experimentally by measuring the solubilization of a water-insoluble dye or fluorophore while varying the concentration of detergent. A CMC may also be determined by measuring the diminution of the surface tension of an aqueous solution as a function of detergent concentration (CMCs determined by either method correlate with each other). The CMC is determined by extrapolating the plot of solubilization vs. concentration (or surface tension vs. concentration) in the two linear regions above and below the CMC. Where the two lines intersect is the CMC. The CMC can also be determined by the method of Nugebauer, J. M. (1990), Methods in Enzymology, 182:239-253.
TFA-0 forms a hydrogel at concentrations >0.4 wt %, and this compound was not studied further. The other three TFAs are soluble to 5-10 wt % in aqueous media. Critical micelle concentrations (CMC) were determined by monitoring solubilization of a hydrophobic fluorescent dye, […] (Chattopadhyay et al., Anal. Biochem. 1984, 139, 408-412), and the hydrodynamic radii (Rh) of the micelles were determined via dynamic light scattering (DLS). Table 1 compares the data for TFAs with those for DDM, a conventional detergent that is very widely used for MP applications; DDM and the TFAs share maltose as their hydrophilic moieties. CMC values of the three TFAs are smaller than that of DDM, whether CMC is measured in units of mM or wt %.
Analysis of these TFAs for their CMC values provided the data in Table 3.

[2] = Micelle characterization by gel filtration with triple detector analysis (TDA); assay type: physicochemical; conditions: for dn/dc, specific refractive index increment / IV, intrinsic viscosity / N, aggregation number of micelles / Rh (nm) / MMW, molecular weight of micelles / Mw/Mn, weight-averaged molecular weight divided by number-averaged molecular weight: TDA; for IV, intrinsic viscosity / N, aggregation number of micelles / Rh (nm) / MMW, molecular weight of micelles: 20 mM HEPES, 150 mM NaCl buffer; for IV, intrinsic viscosity / N, aggregation number of micelles / Rh (nm) / MMW, molecular weight of micelles / Mw/Mn, weight-averaged molecular weight divided by number-averaged molecular weight: mean ± SD; for MMW, molecular weight of micelles: TFA-1 n = 6, DDM n = 8; for Mw/Mn, weight-averaged molecular weight divided by number-averaged molecular weight: micelles; for MW of micelles in water: summary statement
Experimental: Micelles formed by DDM or by TFA-1 in pH 7.0 buffer (20 mM HEPES, 150 mM NaCl) were further characterized by gel filtration using a triple-detector system (Gatta et al., Anal. Biochem. 2010, 404, 21-29), analyzing light scattering, refractive index, and differential pressure (Table 2). In both cases the micelles are globular and monodisperse. TFA-1 micelles contain only 6 molecules, which contrasts with the ˜175 molecules in a DDM micelle. TFA-2 (R=ethyl) behaved similarly to TFA-1 (R=methyl), given the similarity in Rh, but TFA-3 (R=butyl) forms larger micelles. A related trend was observed among lipopeptides, with increasing length of the alkyl appendages leading to increasing micelle size (McGregor et al., Nat. Biotech. 2003, 21, 171-176).
The on-line SEC triple detector array (Gatta et al., Anal. Biochem. 404, 21 (2010)) (Viscotek Corporation, a Malvern Company) used for detergent analysis is composed of 1) a 660 nm differential refractometer for quantifying the concentration C (mg/mL) for all molecules according to their specific refractive index increment do/dc (mL/g) using Snell's Law of Refraction (RI signal=KRI*C*(dn/dc)/RISol), 2), a single right angle 90° static light scattering (RALS) detector for measuring the average mass M (Da) according to the Raleigh Light Scattering Equation for small molecules (LS90° signal=Mavg*RIsol^2*C*(dn/dc)^2)/KLS*Kopt, where Kopt=4*π^2/(λ^4*NA), and 3) an absolute differential viscometer (Haney, J. Appl. Polym. Sci. 30, 3023 (1985)) for measuring differential pressure (DP) and calculating intrinsic viscosity (IV; dL/g) according to Newtonian Viscosity (liquid layers) applied to tubes using Poiseulle's Law (DP signal=IV*C) and for calculating the radius of hydration Rh (nm) according to Einstein's volume of hydration equation for hard spheres (Rh=[( 3/10π)*IV*M/NA]^1/3).
The IV represents molecular shape and for proteins it can vary from 0.017 dl/g for globular shapes to 0.355 dl/g for elongated shapes to 0.499 dl/g for complete denaturation (Scheraga and Mandelkern, J. Chem. Phys. 75, 179-184 (1953); Dutta et al., J. Chromatogr. 536, 113-121 (1991); Chenal et al., J. Biol. Chem. 16, 284(3), 1781-1789 (2009)). The chromatography pump, injector, SEC column (0.75×60 cm TSK G3000 plus guard column), and TDArray are placed in a 4° C. cold box, while the buffer (degassed for more than 1 hr with stir prior use) is at room temperature (RT) to allow it to be run through a RT on-line degasser, which then runs though 3 ft of 4° C. stainless steel tubing before entering the SEC pump, injector and column. The extensive degassing insures an accurate DP measurement. With this configuration, the temperature at the detectors is 6° C. TDA buffer was 20 mM Hepes, 150 mM NaCl, […] and either 0.1 mM TFA-1 or 1 mM DDM. The refractive index of the solvent RISol was measured at 10° C. using an Anton Paar Abbemat temperature controlled refractometer at 589.2 nm. Triple detection data at every 5 Hz data point throughout the complete SEC peak were used for all analysis.
For calibration, the detector response factors KRI and KLS were measured using Ovalbumin Fraction VII (Sigma). Prior to calibration, ovalbumin was first purified by SEC (280 nm detection) at 4° C. to remove small populations of dimers and aggregates, and to insure Gaussian detector peaks for TDA calibration. Ovalbumin was solubilized at 26 mg/mL in TDA buffer at 4° C. for 10 min and clarified by centrifugation (10 min 15,000×g); collecting the top 30% of the SEC elution peak from 500 μL injections yielded monodisperse ovalbumin at 5-7 mg/mL. Ovalbumin mass was 44.3 kDa (Sigma Product Information sheet and references therein) with a 0.701 dA280nm/dc (Pace et al., Prot. Sci. 4(11), 2411-2423 (1995)) and 0.187 dn/dc (Maezawa et al., Biochem. Biophys. Acta 747, 291-297 (1983); Hayashi et al., Methods Enzymol. 172, 514-528 (1989)). […]

CCCCCCCCCCCCO[C@@H]1O[C@H](CO)[C@@H](O[C@H]2O[C@H](CO)[C@@H](O)[C@H](O)[C@H]2O)[C@H](O)[C@H]1O [DDM, dodecyl-β-D-maltoside, reference compound]
CMC [1]: 170 µM | CMC (wt %) [1]: 0.009 wt % and 0.0087 wt % | dn/dc, specific refractive index increment [2]: 0.130 mL/g | IV, intrinsic viscosity [2]: 0.028 ± 0.009 dL/g | N, aggregation number of micelles [2]: 176.4 ± 1.3 | Rh (nm) [2]: 3.42 ± 0.04 nm | MMW, molecular weight of micelles [2]: 89982 ± 663 Da | Mw/Mn, weight-averaged molecular weight divided by number-averaged molecular weight [2]: 1.01 ± 0.00 | MW of micelles in water [2]: ~90 kD

C[C@H](CCC(=O)N(C)CCCN(C)C(=O)CC[C@@H](C)[C@H]1CC[C@H]2[C@@H]3CC[C@@H]4C[C@H](O[C@@H]5O[C@H](CO)[C@@H](O[C@H]6O[C@H](CO)[C@@H](O)[C@H](O)[C@H]6O)[C@H](O)[C@H]5O)CC[C@]4(C)[C@H]3C[C@H](O[C@@H]3O[C@H](CO)[C@@H](O[C@H]4O[C@H](CO)[C@@H](O)[C@H](O)[C@H]4O)[C@H](O)[C@H]3O)[C@]12C)[C@H]1CC[C@H]2[C@@H]3CC[C@@H]4C[C@H](O[C@@H]5O[C@H](CO)[C@@H](O[C@H]6O[C@H](CO)[C@@H](O)[C@H](O)[C@H]6O)[C@H](O)[C@H]5O)CC[C@]4(C)[C@H]3C[C@H](O[C@@H]3O[C@H](CO)[C@@H](O[C@H]4O[C@H](CO)[C@@H](O)[C@H](O)[C@H]4O)[C@H](O)[C@H]3O)[C@]12C [TFA-1]
CMC [1]: 13 ± 1.4 µM | CMC (wt %) [1]: 0.0028 ± 0.0003 wt % | dn/dc, specific refractive index increment [2]: 0.173 mL/g | IV, intrinsic viscosity [2]: 0.036 ± 0.005 dL/g | N, aggregation number of micelles [2]: 6 and 6.2 ± 0.07 | Rh (nm) [2]: 1.96 ± 0.01 nm | MMW, molecular weight of micelles [2]: 13279 ± 157 Da | Mw/Mn, weight-averaged molecular weight divided by number-averaged molecular weight [2]: 1.00 ± 0.00 | MW of micelles in water [2]: ~13 kD
